Measured values: ChEMBL document CHEMBL3232804, “Synthesis and evaluation of new diaryl ether and quinoline hybrids as potential antiplasmodial and antimicrobial agents” (Bioorg Med Chem Lett, 2014)
Values after ≈ are worked out from the molar mass of the structure shown.

Legend:
Plasmodium falciparum [1] = assay: Antiplasmodial activity against chloroquine-sensitive Plasmodium falciparum 3D7 infected after 72 hrs by Malaria SYBR Green I-staining based fluorescence assay; type: functional, organism-based; settings: 3D7, 72 h
Plasmodium falciparum [2] = assay: Antiplasmodial activity against chloroquine-resistant Plasmodium falciparum K1 infected after 72 hrs by Malaria SYBR Green I-staining based fluorescence assay; type: functional, organism-based; settings: K1, 72 h
[3] = Selectivity index, ratio of IC50 for african green monkey Vero cells to IC50 for chloroquine-sensitive Plasmodium falciparum 3D7; type: toxicity, cell-based; settings: read-out: Ratio IC50
Cryptococcus neoformans = assay: Antifungal activity against Cryptococcus neoformans clinical isolate after 24 to 48 hrs by standard broth microdilution method; type: functional
Klebsiella pneumoniae = assay: Antimicrobial activity against Klebsiella pneumoniae ATCC 27736 after 24 hrs by standard broth microdilution method; type: functional; settings: ATCC 27736, 24 h
Aspergillus fumigatus = assay: Antifungal activity against Aspergillus fumigatus clinical isolate after 72 to 96 hrs by standard broth microdilution method; type: functional
Pseudomonas aeruginosa = assay: Antimicrobial activity against Pseudomonas aeruginosa ATCC BAA-427 after 24 hrs by standard broth microdilution method; type: functional; settings: ATCC BAA-427, 24 h
Candida albicans = assay: Antifungal activity against Candida albicans clinical isolate after 24 to 48 hrs by standard broth microdilution method; type: functional
Candida parapsilosis = assay: Antifungal activity against Candida parapsilosis ATCC […] after 72 to 96 hrs by standard broth microdilution method; type: functional; settings: Lodderomyces parapsilosis
Escherichia coli = assay: Antimicrobial activity against Escherichia coli ATCC 9637 after 24 hrs by standard broth microdilution method; type: functional; settings: ATCC 9637, 24 h
[4] = test system: Trichophyton mentagrophytes; assay: Antifungal activity against Trichophyton mentagrophytes clinical isolate after 72 to 96 hrs by standard broth microdilution method; type: functional
Staphylococcus aureus = assay: Antimicrobial activity against Staphylococcus aureus ATCC 25923 after 24 hrs by standard broth microdilution method; type: functional; settings: ATCC 25923, 24 h
Sporothrix schenckii = assay: Antifungal activity against Sporothrix schenckii clinical isolate after 72 to 96 hrs by standard broth microdilution method; type: functional

Row | SMILES | IC50 (Plasmodium falciparum [1]) [nM] | IC50 (Plasmodium falciparum [2]) [nM] | selectivity ratio [3] | MIC (Cryptococcus neoformans) [µg/mL] | MIC (Klebsiella pneumoniae) [µg/mL] | MIC (Aspergillus fumigatus) [µg/mL] | MIC (Pseudomonas aeruginosa) [µg/mL] | MIC (Candida albicans) [µg/mL] | MIC (Candida parapsilosis) [µg/mL] | MIC (Escherichia coli) [µg/mL] | MIC [4] [µg/mL] | MIC (Staphylococcus aureus) [µg/mL] | MIC (Sporothrix schenckii) [µg/mL]
1 | COC(=O)/C(C)=C/c1ccc(Oc2ccc(N/C(=N/c3cccc(Cl)c3)NCCCCNc3ccnc4cc(Cl)ccc34)cc2)cc1 | 51.9 | 66.8 | 47.9 | > 50 | 50 (≈ 74.8 µM) | > 50 | > 50 | > 50 | > 50 | 12.5 (≈ 18.7 µM) | 50 (≈ 74.8 µM) | 3.12 (≈ 4.67 µM) | 50 (≈ 74.8 µM)
2 | COC(=O)/C(C)=C/c1ccc(Oc2ccccc2N/C(=N/c2cccc(Cl)c2)NCCCCNc2ccnc3cc(Cl)ccc23)cc1 | 31.2 | > 800 | 80.7 | > 50 | > 50 | > 50 | > 50 | 50 (≈ 74.8 µM) | > 50 | 12.5 (≈ 18.7 µM) | > 50 | 3.12 (≈ 4.67 µM) | > 50
3 | Clc1ccc(Cl)c(Oc2ccccc2N/C(=N/c2ccccc2)NCCNc2ccnc3cc(Cl)ccc23)c1 | 42.5 | 95.8 | 173 | > 50 | 50 (≈ 86.7 µM) | > 50 | > 50 | 50 (≈ 86.7 µM) | 50 (≈ 86.7 µM) | 25 (≈ 43.3 µM) | 25 (≈ 43.3 µM) | 12.5 (≈ 21.7 µM) | 50 (≈ 86.7 µM)
4 | COc1ccc(Oc2ccc(N/C(=N/c3ccc(Cl)cc3)NCCCCNc3ccnc4cc(Cl)ccc34)cc2)cc1 | 33.7 | 138 | 88.7 | 25 (≈ 41.6 µM) | 25 (≈ 41.6 µM) | 25 (≈ 41.6 µM) | > 50 | 25 (≈ 41.6 µM) | 6.25 (≈ 10.4 µM) | 6.25 (≈ 10.4 µM) | 12.5 (≈ 20.8 µM) | 6.25 (≈ 10.4 µM) | 12.5 (≈ 20.8 µM)
5 | COC(=O)/C(C)=C/c1ccc(Oc2ccccc2N/C(=N/c2ccc(Cl)cc2)NCCCCNc2ccnc3cc(Cl)ccc23)cc1 | 96.8 | 41.2 | 102 | 50 (≈ 74.8 µM) | > 50 | > 50 | > 50 | 50 (≈ 74.8 µM) | > 50 | 12.5 (≈ 18.7 µM) | 6.25 (≈ 9.35 µM) | 1.56 (≈ 2.33 µM) | 6.25 (≈ 9.35 µM)
6 | COc1ccc(Oc2ccccc2N/C(=N/c2cccc(Cl)c2)NCCCCNc2ccnc3cc(Cl)ccc23)cc1 | 37.6 | > 1000 | 176 | 50 (≈ 83.3 µM) | 50 (≈ 83.3 µM) | > 50 | > 50 | 12.5 (≈ 20.8 µM) | 50 (≈ 83.3 µM) | 12.5 (≈ 20.8 µM) | 12.5 (≈ 20.8 µM) | 3.12 (≈ 5.2 µM) | 12.5 (≈ 20.8 µM)
7 | Clc1ccc(/N=C(\NCCNc2ccnc3cc(Cl)ccc23)Nc2ccc(Oc3cc(Cl)ccc3Cl)cc2)cc1 | 44 | 54.1 | 189 | 6.25 (≈ 10.2 µM) | > 50 | 6.25 (≈ 10.2 µM) | > 50 | 6.25 (≈ 10.2 µM) | 12.5 (≈ 20.4 µM) | 6.25 (≈ 10.2 µM) | 6.25 (≈ 10.2 µM) | 25 (≈ 40.9 µM) | 3.12 (≈ 5.1 µM)
8 | Clc1ccc(/N=C(\NCCCNc2ccnc3cc(Cl)ccc23)Nc2ccccc2Oc2cc(Cl)ccc2Cl)cc1 | 87.2 | > 800 | 112 | 25 (≈ 40 µM) | > 50 | > 50 | > 50 | 6.25 (≈ 9.99 µM) | 50 (≈ 80 µM) | 12.5 (≈ 20 µM) | > 50 | 6.25 (≈ 9.99 µM) | 25 (≈ 40 µM)
9 | COC(=O)/C(C)=C/c1ccc(Oc2ccc(N/C(=N/c3cccc(Cl)c3)NCCCNc3ccnc4cc(Cl)ccc34)cc2)cc1 | 78.2 | 71.4 | 21.9 | > 50 | 50 (≈ 76.4 µM) | > 50 | > 50 | > 50 | 50 (≈ 76.4 µM) | 6.25 (≈ 9.55 µM) | 50 (≈ 76.4 µM) | 6.25 (≈ 9.55 µM) | 50 (≈ 76.4 µM)
10 | COc1ccc(Oc2ccc(N/C(=N/c3cccc(Cl)c3)NCCCNc3ccnc4cc(Cl)ccc34)cc2)cc1 | 49.6 | 236 | 158 | 25 (≈ 42.6 µM) | 12.5 (≈ 21.3 µM) | 25 (≈ 42.6 µM) | > 50 | 6.25 (≈ 10.7 µM) | 12.5 (≈ 21.3 µM) | 6.25 (≈ 10.7 µM) | 6.25 (≈ 10.7 µM) | 6.25 (≈ 10.7 µM) | 6.25 (≈ 10.7 µM)
11 | COc1ccc(Oc2ccc(N/C(=N/c3ccccc3)NCCCCNc3ccnc4cc(Cl)ccc34)cc2)cc1 | 86 | 92.1 | 49 | 25 (≈ 44.2 µM) | 25 (≈ 44.2 µM) | 25 (≈ 44.2 µM) | > 50 | 12.5 (≈ 22.1 µM) | 12.5 (≈ 22.1 µM) | 50 (≈ 88.3 µM) | 12.5 (≈ 22.1 µM) | 6.25 (≈ 11 µM) | 12.5 (≈ 22.1 µM)
12 | COc1ccc(Oc2ccc(N/C(=N/c3cccc(Cl)c3)NCCCCNc3ccnc4cc(Cl)ccc34)cc2)cc1 | 75.7 | 147 | 61.2 | 12.5 (≈ 20.8 µM) | 25 (≈ 41.6 µM) | 25 (≈ 41.6 µM) | > 50 | 6.25 (≈ 10.4 µM) | 6.25 (≈ 10.4 µM) | 25 (≈ 41.6 µM) | 6.25 (≈ 10.4 µM) | 6.25 (≈ 10.4 µM) | 6.25 (≈ 10.4 µM)
13 | Clc1cccc(/N=C(\NCCCNc2ccnc3cc(Cl)ccc23)Nc2ccccc2Oc2cc(Cl)ccc2Cl)c1 | 87.7 | 77.7 | 18.7 | 50 (≈ 80 µM) | > 50 | > 50 | > 50 | 25 (≈ 40 µM) | 50 (≈ 80 µM) | 6.25 (≈ 9.99 µM) | 50 (≈ 80 µM) | 1.56 (≈ 2.49 µM) | 50 (≈ 80 µM)
14 | COC(=O)/C(C)=C/c1ccc(Oc2ccc(N/C(=N/c3ccccc3)NCCCCNc3ccnc4cc(Cl)ccc34)cc2)cc1 | 94.4 | 76.7 | 91.8 | 25 (≈ 39.4 µM) | 50 (≈ 78.8 µM) | > 50 | > 50 | 25 (≈ 39.4 µM) | 25 (≈ 39.4 µM) | 25 (≈ 39.4 µM) | 25 (≈ 39.4 µM) | 50 (≈ 78.8 µM) | 25 (≈ 39.4 µM)
15 | COC(=O)/C(C)=C/c1ccc(Oc2ccccc2N/C(=N/c2cccc(Cl)c2)NCCNc2ccnc3cc(Cl)ccc23)cc1 | 34.9 | 489 | 234 | 25 (≈ 39 µM) | 3.12 (≈ 4.87 µM) | 50 (≈ 78.1 µM) | > 50 | 25 (≈ 39 µM) | 25 (≈ 39 µM) | 50 (≈ 78.1 µM) | 25 (≈ 39 µM) | 3.12 (≈ 4.87 µM) | 25 (≈ 39 µM)
16 | Clc1cccc(/N=C(\NCCNc2ccnc3cc(Cl)ccc23)Nc2ccccc2Oc2cc(Cl)ccc2Cl)c1 | 69.6 | 422 | 56.2 | > 50 | > 50 | > 50 | > 50 | 50 (≈ 81.8 µM) | 50 (≈ 81.8 µM) | 6.25 (≈ 10.2 µM) | 50 (≈ 81.8 µM) | 1.56 (≈ 2.55 µM) | 50 (≈ 81.8 µM)
17 | Clc1ccc(Cl)c(Oc2ccc(N/C(=N/c3ccccc3)NCCCNc3ccnc4cc(Cl)ccc34)cc2)c1 | 23.1 | > 846 | 164 | 6.25 (≈ 10.6 µM) | 25 (≈ 42.3 µM) | 6.25 (≈ 10.6 µM) | > 50 | 12.5 (≈ 21.2 µM) | 6.25 (≈ 10.6 µM) | 3.12 (≈ 5.28 µM) | 6.25 (≈ 10.6 µM) | 12.5 (≈ 21.2 µM) | 3.12 (≈ 5.28 µM)
18 | Clc1ccc(/N=C(\NCCCCNc2ccnc3cc(Cl)ccc23)Nc2ccccc2Oc2cc(Cl)ccc2Cl)cc1 | 654 | 151 | 11 | > 50 | > 50 | > 50 | > 50 | > 50 | > 50 | > 50 | > 50 | > 50 | > 50
19 | COc1ccc(Oc2ccc(N/C(=N/c3cccc(Cl)c3)NCCNc3ccnc4cc(Cl)ccc34)cc2)cc1 | 88.7 | 83.3 | 91.3 | > 50 | 12.5 (≈ 21.8 µM) | > 50 | > 50 | 25 (≈ 43.7 µM) | > 50 | 12.5 (≈ 21.8 µM) | 12.5 (≈ 21.8 µM) | 12.5 (≈ 21.8 µM) | 12.5 (≈ 21.8 µM)
20 | Clc1ccc(Cl)c(Oc2ccccc2N/C(=N/c2ccccc2)NCCCCNc2ccnc3cc(Cl)ccc23)c1 | 194 | 94 | 43.5 | > 50 | > 50 | > 50 | > 50 | 50 (≈ 82.6 µM) | > 50 | 25 (≈ 41.3 µM) | 50 (≈ 82.6 µM) | 12.5 (≈ 20.7 µM) | 25 (≈ 41.3 µM)
21 | COC(=O)/C(C)=C/c1ccc(Oc2ccccc2N/C(=N/c2ccccc2)NCCCNc2ccnc3cc(Cl)ccc23)cc1 | 174 | 161 | 37.2 | > 50 | > 50 | > 50 | > 50 | > 50 | > 50 | > 50 | > 50 | > 50 | > 50
